Test results taken from patent publication EP4759807A1, “PROTEOLYSIS TARGETING CHIMERA COMPOUND FOR DEGRADING IRAK4 AND USE THEREOF” (Shenzhen Zhongge Biological Technology Co., Ltd., priority 2023, dated 2025).

How the values were obtained:
[1] = biological target: T1, IRAK4 (Homo sapiens, UniProt Q9NWZ3); assay: WB detection of proteolysis (Western Blot, THP-1 cells); type: cell-based; conditions: Western Blot, THP-1 cells, 24 h; for DC50: read-out: DC50
T1 sequence (Q9NWZ3 1-460): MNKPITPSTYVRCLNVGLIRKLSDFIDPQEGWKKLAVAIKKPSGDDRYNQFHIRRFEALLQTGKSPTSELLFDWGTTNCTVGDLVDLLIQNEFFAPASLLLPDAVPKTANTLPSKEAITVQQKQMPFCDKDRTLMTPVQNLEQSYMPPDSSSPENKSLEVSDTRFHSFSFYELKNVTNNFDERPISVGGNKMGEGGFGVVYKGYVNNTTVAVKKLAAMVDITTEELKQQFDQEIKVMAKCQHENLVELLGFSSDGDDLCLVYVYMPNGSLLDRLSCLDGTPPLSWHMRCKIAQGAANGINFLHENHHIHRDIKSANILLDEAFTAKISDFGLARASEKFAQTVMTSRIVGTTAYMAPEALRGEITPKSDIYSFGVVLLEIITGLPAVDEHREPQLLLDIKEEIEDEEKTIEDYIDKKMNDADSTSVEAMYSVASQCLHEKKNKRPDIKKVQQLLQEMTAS
Method: The degradation level of IRAK4 in THP-1 cells was detected by Western Blot technology. […] 1000X gradient dilution stock of the compound was prepared, with the highest concentration set at 300 µM. The dilution was carried out using DMSO in a 1:3 dilution factor, yielding a total of 9 concentrations. 1000X gradient dilutions of the compound were added to a 12-well plate, with 1 µL per well. Incubation was performed under conditions of 37°C and 5% CO2 for 24 h, and the cells were collected into 2 mL of centrifuge tubes and centrifuged at 5000 rpm for 5 min, and the supernatant was removed. 100 µL of RIPA lysis buffer (Beyotime, P0013C) was added and mixed uniformly, then the cells were lysed on ice for 10 min, centrifuged at 4°C at 14000 rpm for 10 min, and the supernatant was collected. Protein content was determined with BCA (Solarbio, PC0020-10*50T). 75 µL of the supernatant was taken, and 25 µL of NuPAGE LDS Sample Buffer (4X) (Thermo B0007) was added to each tube (5% β-mercaptoethanol was added before use) to prepare samples, and the samples were boiled in a metal bath at 100°C for 5 min. […] 1x NuPAGE™ MOPS SDS electrophoresis buffer (20X) (Invitrogen, NP0001) was prepared, and the electrophoresis instrument was set to a constant current of 300 mA for 100 min, and the protein was transferred to a PVDF membrane (Millipore, IPVH00010). […] The membrane was washed three times with 1x TBST (Elabscience E-BC-R335) the next day, each time for 5 min. […] The membrane was washed three times with TBST, each time for 5 min. The Odyssey imaging system Li-cor Odyssey CLx was used to detect signals and analyze data. GraphPad (Prism 9.3) software was used to perform analysis for data, and non-linear fitting (non-liner inhibitor (Bell-shaped)) and four parameters (4 parameter) were used, and the parameters was as follows: Span1 = Plateau1−Dip [formula] Span2 = Plateau2−Dip [formula] Section1 = Span1/(1+10^(∧)((LogEC50_1−X)*nH1)) [formula] Section2 = Span2/(1+10^(∧)((X−LogEC50_2)*nH2)) [formula]
The equation was as follows: Y=Dip+Section1+Section2.

[2] = biological target: T1, IRAK4; assay: Hibit fluorescence detection of proteolysis (IRAK4-HiBiT in HEK293T cells); type: cell-based; set-up: host or cells: HEK293T (ATCC); conditions: for Dmax: HEK-293T; for DC50: IRAK4-HiBiT, HEK293T cells, 24 h
In short: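 Degradation read-out: luminescence from lytic HiBiT detection (15 min, room temperature) after 24 h compound exposure (37 °C, 5% CO2) of HEK293T cells transiently expressing IRAK4 fused to a HiBiT tag. Data fitted to a bell-shaped four-parameter model giving two EC50 values.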

Row | SMILES | DC50 [1] [nM] | Dmax ([1]; read-out: Dmax) [%] | Dmax [2] [%] | DC50 ([2]; read-out: DC50) [nM] | DC50 [2] [nM] | Dmax [1]
1 | Cn1c(=O)n(C2CCC(=O)NC2=O)c2cccc(N3CCC4(CCN(C[C@H]5CC[C@H](n6cc(-n7cc(-c8cnn9ccc(N%10CCC(C)(O)CC%10)nc89)nn7)c(C(F)F)n6)CC5)C4)CC3)c21 (some centres unmarked) [Compound 238] | 10 to 30 | 60 to 70 | > 80 | < 0.5 |  | 
2 | Cn1c(=O)n(C2CCC(=O)NC2=O)c2cccc(N3CCC(N4CCN(C[C@H]5CC[C@H](n6cc(-n7cc(-c8cnn9ccc(N[C@H]%10CCCC[C@H]%10O)nc89)nn7)c(C(F)F)n6)CC5)CC4)CC3)c21 (some centres unmarked) [Example 122] | < 10 | > 70 | > 80 |  | < 0.5 | 
3 | C[C@H]1CN(c2ccn3ncc(-c4cn(-c5cn([C@H]6CC[C@H](CN7CCC(N8CCN(c9cccc%10c9n(C)c(=O)n%10C9CCC(=O)NC9=O)CC8)CC7)CC6)nc5C(F)F)nn4)c3n2)CCO1 (some centres unmarked) [Compound 208] | < 10 | > 70 | > 80 | < 0.5 |  | 
4 | Cn1c(=O)n(C2CCC(=O)NC2=O)c2cccc(N3CCC4(CCN(C[C@H]5CC[C@H](n6cc(-n7cc(-c8cnn9ccc(NCC%10CC%10)nc89)nn7)c(C(F)F)n6)CC5)CC4)CC3)c21 (some centres unmarked) [Example 108] | < 10 | > 70 | > 80 |  | < 0.5 | 
5 | Cn1c(=O)n(C2CCC(=O)NC2=O)c2cccc(N3CCC4(CCN(C[C@H]5CC[C@H](n6cc(-n7cc(-c8cnn9ccc(NCC%10CC%10)nc89)nn7)c(C(F)F)n6)CC5)C4)CC3)c21 (some centres unmarked) [Example 113] | > 30 | 60 to 70 | > 80 |  | < 0.5 | 
6 | Cn1c(=O)n(C2CCC(=O)NC2=O)c2cccc(N3CCC(N4CCN(C[C@H]5CC[C@H](n6cc(-n7cc(-c8cnn9ccc(N[C@@H]%10CCCC[C@@H]%10O)nc89)nn7)c(C(F)F)n6)CC5)CC4)CC3)c21 (some centres unmarked) [Example 155] | < 10 | > 70 | > 80 |  | < 0.5 | 
7 | Cn1c(=O)n(C2CCC(=O)NC2=O)c2cccc(N3CCN(C[C@H]4CC[C@H](n5cc(-n6cc(-c7cnn8ccc(N9CCOCC9)nc78)nn6)c(C(F)F)n5)CC4)CC3)c21 (some centres unmarked) [Example 30] | < 10 | < 60 | > 80 |  | < 0.5 | 
8 | Cn1c(=O)n(C2CCC(=O)NC2=O)c2cccc(N[C@H]3CC[C@H](N(C)C[C@H]4CC[C@H](n5cc(-n6cc(-c7ccc8cc(C(N)=O)cnn78)nn6)c(C(F)F)n5)CC4)CC3)c21 (stereo partly drawn) [Example 61, 7-(1-(3-(difluoromethyl)-1-((1R,4r)-4-((((1r,4R)-4-((1-(2,6-dioxopiperidin-3-yl)-3-methyl-2-oxo-2,3-dihydro-1H-benzo[d]imidazol-4-yl)amino)cyclohexyl)(methyl)amino)methyl)cyclohexyl)-1H-pyrazol-4-yl)-1H - 1,2,3-triazol-4-yl)pyrrolo[1,2-b]pyridazine-3-carboxamide] | < 10 | 60 to 70 | > 80 |  | < 0.5 | 
9 | Cn1c(=O)n(C2CCC(=O)NC2=O)c2cccc(N3CCC4(CCN(C[C@H]5CC[C@H](n6cc(-n7cc(-c8cnn9ccc(N[C@@H]%10CCCC[C@@H]%10O)nc89)nn7)c(C(F)F)n6)CC5)CC4)CC3)c21 (some centres unmarked) [Example 151] | < 10 | > 70 | > 80 |  | < 0.5 | 
10 | Cn1c(=O)n(C2CCC(=O)NC2=O)c2cccc(N3CCC4(CCN(C[C@H]5CC[C@H](n6cc(-n7cc(-c8cnn9ccc(N%10CCC[C@@H](O)C%10)nc89)nn7)c(C(F)F)n6)CC5)C4)CC3)c21 (some centres unmarked) [Example 248] | < 10 | > 70 | > 80 |  | < 0.5 | 
11 | Cn1c(=O)n(C2CCC(=O)NC2=O)c2cccc(N3CCC4(CCN(C[C@H]5CC[C@H](n6cc(-n7cc(-c8cnn9ccc(N%10CCC(O)CC%10)nc89)nn7)c(C(F)F)n6)CC5)CC4)CC3)c21 (some centres unmarked) [Example 136] | < 10 | > 70 | > 80 |  | < 0.5 | 
12 | C[C@H]1CN(c2cccc3c2n(C)c(=O)n3C2CCC(=O)NC2=O)CCN1C[C@H]1CC[C@H](n2cc(-n3cc(-c4cnn5ccc(N6CCC[C@H](O)C6)nc45)nn3)c(C(F)F)n2)CC1 (stereo partly drawn) [Example 287, 3-(4-((S)-4-(((1R,4S)-4-(3-(difluoromethyl)-4-(4-(5-((S)-3-hydroxypiperidin-1-yl)pyrazolo[1,5-a]pyrimidin-3-yl)-1H-1,2,3-triazol-1-yl)-1H-pyrazol-1-yl)cyclohexyl)methyl)-3-methylpiperazin-1-yl)-3-methyl-2-oxo-2,3-dihydro-1H-benzo[d]imidazol-1-yl)piperidine-2,6-dione] | < 10 | > 70 |  |  |  | 
13 | Cn1c(=O)n(C2CCC(=O)NC2=O)c2cccc(N3CCC(CN4CCC5(CCC(n6cc(-n7cc(-n8ccc9cc(C(N)=O)cnc98)nn7)c(C(F)F)n6)CC5)CC4)CC3)c21 (centres unmarked) [Example 286] | > 30 | < 60 |  |  |  | 
14 | C[C@H]1CN(C2CCN(c3cccc4c3n(C)c(=O)n4C3CCC(=O)NC3=O)CC2)CCN1C[C@H]1CC[C@H](n2cc(-n3cc(-c4cnn5ccc(N6CCC[C@H](O)C6)nc45)nn3)c(C(F)F)n2)CC1 (stereo partly drawn) [Example 291, 3-(4-(4-((S)-4-(((1R,4S)-4-(3-(difluoromethyl)-4-(4-(5-((S)-3-hydroxypiperidin-1-yl)pyrazolo[1,5-a]pyrimidin-3-yl)-1H-1,2,3-triazol-1-yl)-1H-pyrazol-1-yl)cyclohexyl)methyl)-3-methylpiperazin-1-yl)piperidin-1-yl)-3-methyl-2-oxo-2,3-dihydro-1H-benzo[d]imidazol-1-yl)piperidine-2,6-dione] | < 10 | > 70 |  |  |  | 
15 | Cn1c(=O)n(C2CCC(=O)NC2=O)c2cccc(N3CCC(N4CCN(C[C@H]5CC[C@H](n6cc(-n7cc(-c8cnn9ccc(N%10CCOC[C@@H]%10CO)nc89)nn7)c(C(F)F)n6)CC5)CC4)CC3)c21 (some centres unmarked) [Example 173] | < 10 | > 70 |  |  |  | 
16 | Cn1c(=O)n(C2CCC(=O)NC2=O)c2cccc(N3CCC4(CCN(C[C@H]5CC[C@H](n6cc(-n7cc(-c8cnn9ccc(N%10CCOC[C@@H]%10CO)nc89)nn7)c(C(F)F)n6)CC5)CC4)CC3)c21 (some centres unmarked) [Example 174] | < 10 | > 70 |  |  |  | 
17 | Cn1c(=O)n(C2CCC(=O)NC2=O)c2cccc(N3CCC(N4CCN(C[C@H]5CC[C@H](n6cc(-n7cc(-c8cnn9ccc(N%10CCC[C@@H](O)C%10)nc89)nn7)c(C(F)F)n6)CC5)CC4)CC3)c21 (some centres unmarked) [Example 247] | < 10 | > 70 |  |  |  | 
18 | Cn1c(=O)n(C2CCC(=O)NC2=O)c2cccc(N3CCC4(CCN(CC5CCC(n6cc(-n7cc(-c8cnn9ccc(N%10CCO[C@@H](CO)C%10)nc89)nn7)c(C(F)F)n6)CC5)CC4)CC3)c21 (some centres unmarked) [Example 176] | < 10 |  |  |  |  | A (Dmax ≥ 70%)
19 | Cn1c(=O)n(C2CCC(=O)NC2=O)c2cccc(N3CCC(CN4CCC5(CCC(n6cc(-n7cc(-c8ccc9cc(C(N)=O)cnn89)nn7)c(C(F)F)n6)CC5)CC4)CC3)c21 (centres unmarked) [Example 172] | < 10 | > 70 |  |  |  | 
20 | C[C@@H]1CC2(CCN(c3cccc4c3n(C)c(=O)n4C3CCC(=O)NC3=O)CC2)CN1C[C@H]1CC[C@H](n2cc(-n3cc(-c4cnn5ccc(N6CCC[C@H](O)C6)nc45)nn3)c(C(F)F)n2)CC1 (some centres unmarked) [Example 296] | 10 to 30 | > 70 |  |  |  | 
